The target in assay [1] is T1, Parathyroid hormone/parathyroid hormone-related peptide receptor (Homo sapiens, UniProt Q03431).
T1 sequence (Q03431 whole entry): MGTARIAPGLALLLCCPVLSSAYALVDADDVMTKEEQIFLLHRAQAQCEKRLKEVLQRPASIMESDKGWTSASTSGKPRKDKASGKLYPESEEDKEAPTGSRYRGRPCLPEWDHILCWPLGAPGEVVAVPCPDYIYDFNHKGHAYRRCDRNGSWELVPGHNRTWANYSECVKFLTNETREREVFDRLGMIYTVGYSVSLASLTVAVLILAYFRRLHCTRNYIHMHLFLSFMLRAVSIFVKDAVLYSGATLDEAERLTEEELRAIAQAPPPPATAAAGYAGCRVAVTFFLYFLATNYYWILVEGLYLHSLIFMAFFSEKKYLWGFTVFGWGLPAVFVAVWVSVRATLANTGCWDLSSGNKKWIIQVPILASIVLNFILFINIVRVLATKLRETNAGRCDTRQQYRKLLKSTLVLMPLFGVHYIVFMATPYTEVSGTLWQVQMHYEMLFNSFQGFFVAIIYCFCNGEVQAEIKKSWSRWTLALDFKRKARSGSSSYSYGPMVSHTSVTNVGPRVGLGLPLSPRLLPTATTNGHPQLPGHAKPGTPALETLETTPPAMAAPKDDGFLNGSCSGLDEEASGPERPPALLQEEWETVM
Description: Displacement of [125I]-[Nle,8,18 Tyr34]-hPTH(1-34) from human recombinant PTH1R expressed in HEK293 cells. The assay is classed as cell-based. On the technique in general: In a radioligand displacement assay an active substance lowers the binding of a labelled ligand.

For assay [2], the target named is T1, Parathyroid hormone/parathyroid hormone-related peptide receptor. Description: Antagonist activity at human wild type PTH1 receptor expressed in SaOS2 cells assessed as inhibition of PTHrP (1-34)-stimulated cAMP production at 3 uM. The assay is classed as functional, cell-based, SAOS-2. To be noted: read-out: pA2 (converted). In general terms: Cyclic AMP is a second messenger, typically raised through Gs and lowered through Gi signalling.

Assay [3] has as its target T2, Parathyroid hormone/parathyroid hormone-related peptide receptor (Mus musculus, UniProt P41593).
T2 sequence (P41593 whole entry): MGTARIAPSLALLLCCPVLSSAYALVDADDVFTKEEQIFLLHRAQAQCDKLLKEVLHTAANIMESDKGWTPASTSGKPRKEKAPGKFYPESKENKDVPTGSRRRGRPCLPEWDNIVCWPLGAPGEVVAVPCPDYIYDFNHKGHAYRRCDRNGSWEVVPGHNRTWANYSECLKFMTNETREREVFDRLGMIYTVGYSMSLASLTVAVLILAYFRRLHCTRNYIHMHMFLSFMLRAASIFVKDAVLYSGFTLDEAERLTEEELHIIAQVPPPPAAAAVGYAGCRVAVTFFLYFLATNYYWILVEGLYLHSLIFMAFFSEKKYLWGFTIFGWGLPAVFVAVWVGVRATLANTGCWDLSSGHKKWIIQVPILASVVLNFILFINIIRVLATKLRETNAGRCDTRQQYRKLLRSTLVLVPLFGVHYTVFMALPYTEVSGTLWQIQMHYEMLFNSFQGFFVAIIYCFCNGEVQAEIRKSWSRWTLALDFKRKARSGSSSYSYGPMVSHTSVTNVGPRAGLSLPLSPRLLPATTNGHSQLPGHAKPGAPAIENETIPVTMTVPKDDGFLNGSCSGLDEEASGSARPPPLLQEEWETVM
Description: Antagonist activity at mouse wild type PTH1 receptor expressed in MC3T3E1 cells assessed as inhibition of PTHrP (1-34)-stimulated cAMP production at 3 uM. Format: functional, cell-based. Conditions: read-out: pA2 (converted).

Assay [4] concerns the target T1, Parathyroid hormone/parathyroid hormone-related peptide receptor. Description: Antagonist activity at human recombinant PTH1 receptor expressed in HEK293 cells assessed as inhibition of PTH(1-34)-stimulated cAMP production. Conditions: read-out: pA2 (converted). Format: functional, cell-based.
The species named for another assay is Homo sapiens. The experiment in a line: Selectivity for human recombinant PTH1 receptor over human recombinant PTH2 receptor.
Assay [5] has as its target T3, Parathyroid hormone/parathyroid hormone-related peptide receptor (Homo sapiens) (UniProt Q03431).
T3 sequence (whole entry): T1 sequence (Q03431 whole entry)
The experiment in a line: Antagonist activity at human wild type PTH1 receptor expressed in SaOS2 cells assessed as inhibition of PTHrP (1-34)-stimulated cAMP production. The assay is classed as functional, cell-based. Conditions: SAOS-2.

Assay [6] deals with Parathyroid hormone 2 receptor (Homo sapiens) (UniProt P49190). The experiment in a line: Antagonist activity at human recombinant PTH2 receptor expressed in CHOK1 cells assessed as inhibition of TIP (1-39)-stimulated cAMP production at 10 uM. To be noted: read-out: pA2 (converted).
Assay [7] concerns the target T3, Parathyroid hormone/parathyroid hormone-related peptide receptor (Homo sapiens). Description: Displacement of [125I]-[Nle,8,18 Tyr34]-hPTH(1-34) from human recombinant PTH1R expressed in HEK293 cells at 10 uM. The assay is classed as cell-based.
The target is the same in assay [8]. Description: Displacement of [125I]-[Nle,8,18 Tyr34]-hPTH(1-34) from human recombinant PTH1R expressed in HEK293 cells at 1 uM. The assay is classed as cell-based.

Parathyroid hormone 2 receptor (Homo sapiens), sequence (P49190 whole entry, looked up): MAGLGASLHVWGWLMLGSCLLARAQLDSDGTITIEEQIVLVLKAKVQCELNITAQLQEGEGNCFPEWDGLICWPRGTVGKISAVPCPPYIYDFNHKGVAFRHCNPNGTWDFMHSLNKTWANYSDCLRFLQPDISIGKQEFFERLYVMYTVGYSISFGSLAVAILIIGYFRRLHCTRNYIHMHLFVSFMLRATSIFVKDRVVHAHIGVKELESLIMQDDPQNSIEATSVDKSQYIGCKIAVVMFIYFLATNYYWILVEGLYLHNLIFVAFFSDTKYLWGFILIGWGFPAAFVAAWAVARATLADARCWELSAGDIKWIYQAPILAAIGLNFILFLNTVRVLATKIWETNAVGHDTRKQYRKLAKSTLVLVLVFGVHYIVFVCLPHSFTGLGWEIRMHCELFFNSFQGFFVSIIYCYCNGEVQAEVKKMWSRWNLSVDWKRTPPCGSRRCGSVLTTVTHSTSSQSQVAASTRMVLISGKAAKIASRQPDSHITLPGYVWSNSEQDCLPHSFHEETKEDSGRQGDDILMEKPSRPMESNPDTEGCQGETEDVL

Consider `N=C(N)Nc1ccc(N2C(=O)N(Cc3ccccc3)N=C(c3ccccc3)c3ccccc32)cc1`, for which the Ki (as a rule, a measure of affinity in units of concentration, obtained from inhibition or displacement) in assay [1] is 3390 nM.
On to `Cc1ccc2c(c1)N(c1ccc(NCCc3ncc[nH]3)cc1)C(=O)N(C)N=C2C1CCCCC1`, for which the Ki in [1] is 13.2 nM. The Kb is 19.5 nM in assay [2], 513 nM in [3], 17 nM in assay [4] and 2880 nM in assay [6]. Besides, the Selectivity ratio in the assay filed under Homo sapiens worked out at 100. For the same compound, the pKb (usually the negative decadic logarithm of the Kb, by convention in mol/L) in assay [5] was 7.55.
With `O=C(O)c1ccc(N2C(=O)N(Cc3ccccc3)N=C(C3CCCCC3)c3ccccc32)cc1`, the Ki in assay [1] was greater than 100000 nM.
In the case of `Cc1ccc2c(c1)N(c1ccc(NC(=O)C(N)C(C)C)cc1)C(=O)N(Cc1ccccc1)N=C2C1CCCCC1` (stereo not given), in [1], the Ki is 112 nM.
For `N=C(N)Nc1ccc(N2C(=O)N(Cc3ccccc3)N=C(C3CCCCC3)c3ccccc32)cc1`, the Ki in [1] is 708 nM.
On to `Cc1ccc2c(c1)N(c1ccc(NC(=N)N)cc1)C(=O)N(Cc1ccccc1)N=C2C1CCCCC1`, for which the Ki in [1] was 155 nM.
For the compound `CC(C)C1=NN(Cc2ccccc2)C(=O)N(c2ccc(NC(=N)N)cc2)c2ccccc21`, the inhibition (in general, the relative decrease from the control value, in per cent) in [7] was found to be 43%.
As for `Cc1ccc2c(c1)N(c1ccc(NCCc3ncc[nH]3)cc1)C(=O)N(C1CCc3ccccc3CC1)N=C2C1CCCCC1`, the Ki in assay [1] is 0.912 nM.
As to `Cc1ccc2c(c1)N(c1ccc(NCCc3ncc[nH]3)cc1)C(=O)N(Cc1ccccc1)N=C2C1CCCCC1`, in assay [1], the Ki is 3.8 nM.
Take `Cc1cc2c(cc1NCc1ccccc1)C(C1CCCCC1)=NN(C)C(=O)N2c1ccc(NCCc2ncc[nH]2)cc1`: in [1], the Ki is 1.45 nM.
Consider `Nc1ccc(N2C(=O)N(Cc3ccccc3)N=C(C3CCCCC3)c3ccccc32)cc1`, for which, in [8], the inhibition stood at 39%.
As for `Cc1ccc2c(c1)N(c1ccc(NCCc3ncc[nH]3)cc1)C(=O)N(C)N=C2C1CCOCC1`, in [1], the Ki was 617 nM.
On the same count and under the same terms, the value for `O=C1N(Cc2ccccc2)N=C(C2CCCCC2)c2ccccc2N1c1ccc(NC2=NCCN2)cc1` was 288 nM.
With `N=C(N)Nc1ccc(CN2C(=O)N(Cc3ccccc3)N=C(C3CCCCC3)c3ccccc32)cc1`, the Ki in [1] is 933 nM.
Regarding `Cc1ccc2c(c1)N(c1ccc(NCCc3ncc[nH]3)cc1)C(=O)N(C(C)C)N=C2C1CCCCC1`, the Ki in assay [1] is 3.55 nM.
Turning to `Cc1ccc2c(c1)N(c1ccc(NCCc3ncc[nH]3)cc1)C(=O)N(C1CCOCC1)N=C2C1CCCCC1`, the Ki in assay [1] was 6.61 nM.
As to `N=C(N)Nc1cccc(N2C(=O)N(Cc3ccccc3)N=C(C3CCCCC3)c3ccccc32)c1`, the Ki in assay [1] is 2820 nM.
With `Cc1ccc2c(c1)N(c1ccc(NC3=NCCN3)cc1)C(=O)N(Cc1ccccc1)N=C2C1CCCCC1`, in [1], the Ki was 70.8 nM.
For the compound `Cc1ccc2c(c1)N(c1ccc(NCCc3ncc[nH]3)cc1)C(=O)N(C1CCc3ccccc3CC1)N=C2C1CCOCC1`, the Ki in assay [1] is 6.76 nM.
`Cc1cc2c(cc1OCc1ccccc1)C(C1CCCCC1)=NN(C)C(=O)N2c1ccc(NCCc2ncc[nH]2)cc1`: the Ki in assay [1] was 1.82 nM.
In the case of `N=C(N)Nc1ccc(N2C(=O)N(Cc3ccccc3)N=C(CN3CCCCC3)c3ccccc32)cc1`, the inhibition in [7] turned out to be 27%.
Turning to `Cc1ccc2c(c1)N(c1ccc(NCc3ncc[nH]3)cc1)C(=O)N(C)N=C2C1CCCCC1`, in [1], the Ki was 50.1 nM.
In the case of `Cc1ccc2c(c1)N(c1ccc(NCCc3ncc[nH]3)cc1)C(=O)N(C1COc3ccccc3OC1)N=C2C1CCCCC1`, the Ki in [1] was 8.71 nM.
For `Cc1ccc2c(c1)N(c1ccc(NCCCc3ncc[nH]3)cc1)C(=O)N(C)N=C2C1CCCCC1`, the Ki in [1] is 20.4 nM.
As for `CCCN1N=C(C2CCCCC2)c2ccc(C)cc2N(c2ccc(NCCc3ncc[nH]3)cc2)C1=O`, the Ki in [1] is 6.76 nM.
With `COCCN1N=C(C2CCCCC2)c2ccc(C)cc2N(c2ccc(NCCc3ncc[nH]3)cc2)C1=O`, the Ki in [1] is 83.2 nM.
For `N=C(N)Nc1ccc(N2C(=O)N(Cc3ccccc3)N=C(CC3CCCCC3)c3ccccc32)cc1`, the Ki in [1] was 562 nM.
As to `CC(C)C(N)C(=O)Nc1ccc(N2C(=O)N(Cc3ccccc3)N=C(C3CCCCC3)c3ccccc32)cc1` (stereo not given), the inhibitory constant (Ki) in assay [1] was 380 nM.
For `NCC(=O)Nc1ccc(N2C(=O)N(Cc3ccccc3)N=C(C3CCCCC3)c3ccccc32)cc1`, the Ki in assay [1] is 676 nM.

(Values after ChEMBL document CHEMBL1148813, “Discovery and characterization of novel, potent, non-peptide parathyroid hormone-1 receptor antagonists” (J Med Chem, 2007).)
